Source: patent US20200360249A1, “AN ANTIMICROBIAL COMPOSITION” (Conopco, Inc., d/b/a UNILEVER, priority 2017, published 2020)

Experiments:
Assay type in all cases: cell-based
[1] = test system: M. furfur; experiment: Antifungal activity, log reduction by plate count; conditions: M. furfur ATCC 14521; contact time 24 hr; 10 mg sample in 1000 μL inoculum, 10^5 cells/ml; 32° C.
Protocol: The samples as given in Table-1 were subjected to their anti fungal efficacy on M. furfur as described hereinafter.
Plate was at 30° C. for 72 hrs. Approximately 72 hrs prior to testing, the plate culture was inoculated onto the surface of another sterile Modified Dixon agar plate and incubated at 30° C. for approximately 72 hrs. From second subculture, the optical density of culture is adjusted at 620 nm to give cell strength of 10^7 cfu/ml. The culture was further diluted by 100 times to achieve 10^5 cfu/ml in Pityrosporum broth.
10 mg of each sample was thoroughly mixed by vortex and weighed into a sterile 1.5 ml Eppendorf tube. 1000 μL of M. furfur inocula were added to the above tubes and a blank sterile 1.5 ml Eppendorf tube (no particles as control), respectively so that the load in each tube is 10^5 cells/ml.
All the samples were shaken at 120 RPM in a shaker incubator at 32° C. After 24 hours incubation, 10 μL of the samples were withdrawn from the respective 1.5 ml Eppendorf tubes and diluted with 990 μL of Pityrosporum broth. This represents a 10^2 dilution. Serial dilution was performed from the above 24 hours inocula and plated 100 μL of dilution onto modified Dixon plate. Plate dilution 10^2, 10^3, 10^4 and […]. All the plates were kept for incubation at 32° C. for 24-72 hrs. Plate count for all the plates were done.

[2] = test system: Staphylococcus aureus; experiment: Antibacterial efficacy, log reduction by plate count; conditions: contact time 60 seconds, 40 mg sample in 100 ml water, pH 10, room temperature
Protocol: 40 mg of the powdered sample was dispersed in 100 ml deionised sterile water. The pH was maintained at 10 using NaOH. 8 ml of the solution was taken, to it 1 ml cell (1 mL bacterial suspension of Staphylococcus aureus (stock 10^9 cells/MI) and 1 ml of distilled water was added. The incubation was done at room temperature for 30 and 60 seconds respectively. 1 ml of the above reaction mixtures was taken and added to 9 ml of Dey-Engley Neutralizing Broth. This was further incubated for 5 minutes. This represents 10^−1 dilution. Serial dilutions were performed for plate count.

[3] = test system: M. furfur ATCC 14521; experiment: Disc diffusion technique (agar cup method), zone of inhibition; conditions: test conc. 0.5 %, Modified Dixon agar, 72 hrs at 32 C, disc diameter 10 mm
Protocol: The plates are swabbed with 100 μl of test inoculum containing approximately 10^6 cells/ml. The swabbed plates are allowed to dry for 5 mins so to absorb excess of remaining culture fluid. The discs impregnated with different test solution were placed on the inoculated agar surface. Each plate was labelled with different test solution and their respective concentration used. The agar plates are incubated for 72 hrs at 32° C. Zones of inhibition are measured using calibrated mm ruler.
Media used: Modified Dixon agar
Incubation conditions: 72 hrs at 32 C
Diameter of disc used: 10 mm (Himedia make)

Compound | Log reduction [1] | Log reduction [2] | zone of inhibition (mm) [3] [mm]
NC(=O)c1ccccn1.[Zn] [D, Zinc picolinamide] | 1.92 | – | –
Zinc isoniacinamide [B] | 1.98 | 0.9 | 0
Zinc niacinamide | 1.96 | – | –
